Measurements from patent publication US20230142274A1 (SIMCERE PHARMACEUTICAL CO., LTD., priority 2020, published 2023).

What follows are compounds tested on Daudi cells (assay: Inhibition of human Daudi lymphoma cell proliferation (Cell-Titer Glo)). Details: 3 days incubation, read-out: Anti-Proliferative Activity Against Daudi cells IC50.
Assay type: cell-based
Description: Introduction of the experimental principle: After the RAD51 inhibitor to be tested was co-incubated with cancer cells for a period of time, the influence of the test compound on cell proliferation was measured by a method for counting cell proliferation based on the quantitative measurement of intracellular ATP content.
Materials and Cells: Daudi cells were purchased from ATCC; fetal bovine serum, 1640 medium and penicillin-streptomycin were purchased from Gibco Inc. (U.S.), 96-well plates were purchased from Corning Inc. (U.S.), and Cell-Titer Glo reagent was purchased from Promega Corporation (U.S.).
Cell culture: Daudi cells were cultured in 1640 culture medium containing 10% fetal bovine serum and 1% penicillin-streptomycin at 37° C. in an atmosphere containing 5% CO2. Cells in logarithmic growth phase could be used for experiments.
Assay of cell proliferation and viability: Cell-Titer Glo reagent was used to measure the inhibitory activities of the compounds on the proliferation of Daudi cell strain. The concentration of cells was adjusted, and the cells were seeded in a 96-well plate and cultured at 37° C. in an atmosphere containing 5% CO2 for 24 hours. The powder of the compound was dissolved in 100% DMSO to form a 10 mM solution. 10 μl of the solution of the compound was aspirated and transferred into a 96-well compound plate containing 20 μl of DMSO solution for 3-fold dilution and was then formulated into 10 serial dilutions. Thereafter, 2 μl of the solution of the compound was aspirated from the corresponding well and added correspondingly into a 96-well intermediate compound dilution plate containing 78 μl of complete culture medium in each well. The resultant was mixed well, and the plate was centrifuged at 1000 rpm for 1 minute. Finally, 10 μl of the solution of the compound was aspirated from the corresponding well of the 96-well intermediate compound dilution plate, and transferred into the corresponding well of the cell culture plate containing 90 μl of complete culture medium. The final concentration of DMSO was 0.25%. After the addition of the compound, the cells were continued to be incubated for 3 days at 37° C. in an atmosphere containing 5% CO2. Cell-Titer Glo reagent was added to measure cell viability.
% Compound inhibition was calculated and IC50 of the compound was filled;
% Compound inhibition=1−100%×(Signal−Bottom)/(Top−Bottom)
`COc1ccc(-c2ccc(-c3cnc([C@H]4CC[C@H](NC(=O)OC(C)C)CC4)s3)c([S@](=N)(=O)C3CC3)c2)cn1` (stereo in doubt) [Example 94-1, isopropyl trans-((4-(5-(2-((R)-cyclopropanesulfonimidoyl))-4-(6-methoxypyridin-3-yl)phenyl)thiazol-2-yl)cyclohexyl)carbamate] was tested, and the IC50 was 60 nM. `CC(C)OC(=O)Nc1ccc(-c2cnc(N3CC4C(C3)C4NC(=O)OC(C)C)s2)c(S(=O)(=O)NC(C)(C)C)c1` (stereo not drawn) [Example 10, isopropyl exo-N-[3-(tert-butylsulfamoyl)-4-[2-[6-(isopropoxycarbonylamino)-3-azabicyclo[3.1.0]hex-3-yl]thiazol-5-yl]phenyl]carbamate] was tested, and the IC50 was 9720 nM.

Same assay, conditions: Homo sapiens, 72 h, 3 days incubation, read-out: Anti-Proliferative Activity Against Daudi cells IC50
Compound `CC(C)OC(=O)Nc1ccc(-c2cnc(N3CCC4(CC3)CN(C(=O)OC(C)C)C4)s2)c(S(=O)(=O)NC(C)(C)C)c1` [Example 8, isopropyl 7-(5-(2-(N-(tert-butyl)sulfamoyl)-4-((isopropoxycarbonyl)amino)phenyl)thiazol-2-yl)-2,7-diazaspiro[3.5]nonane-2-carboxylate] has an IC50 of 3950 nM. In the case of `CC(C)OC(=O)Nc1ccc(-c2cnc(N3CCCC(NC(=O)OC(C)C)CC3)s2)c(S(=O)(=O)NC(C)(C)C)c1` (stereo not drawn) [Example 11, isopropyl N-[3-(tert-butylsulfamoyl)-4-[2-[4-(isopropoxycarbonylamino)azepan-1-yl]thiazol-5-yl]phenyl]carbamate], the IC50 is reported as 2540 nM. For `CN=S(=O)(c1cc(NC(=O)OC(C)C)ccc1-c1cnc(C2CCC(NC(=O)OC(C)C)CC2)s1)C(C)C` (stereo not drawn) [Example 20, isopropyl trans-N-[4-[2-[4-(isopropoxycarbonylamino)cyclohexyl]thiazol-5-yl]-3-(isopropyl-N-methyl-sulfonimidoyl)phenyl]carbamate], the IC50 was 2750 nM. With `CCP(=O)(CC)c1cc(NC(=O)OC(C)C)ccc1-c1cnc([C@H]2CC[C@H](NC(=O)OC(C)C)CC2)s1` [Example 23, isopropyl trans-N-[3-diethylphosphoryl-4-[2-[4-(isopropoxycarbonylamino)cyclohexyl]thiazol-5-yl]phenyl]carbamate] the IC50 was 3930 nM. `CC(C)OC(=O)Nc1ccc(-c2cnc([C@H]3CC[C@H](NC(=O)OC(C)C)CC3)s2)c(S(=O)(=O)CC(C)(C)C)c1` [Example 24, isopropyl trans-N-[3-(2,2-dimethylpropylsulfonyl)-4-[2-[4-(isopropoxycarbonylamino)cyclohexyl]thiazol-5-yl]phenyl]carbamate] showed an IC50 of 2270 nM. `CC(C)OC(=O)Nc1ccc(-c2cnc([C@H]3CC[C@H](NC(=O)OC(C)C)CC3)s2)c(P2(=O)CCCC2)c1` [Example 27, isopropyl trans-N-[4-[2-[4-(isopropoxycarbonylamino)cyclohexyl]thiazol-5-yl]-3-(1-oxophospholan-1-yl)phenyl]carbamate] showed an IC50 of 680 nM. `CC(C)OC(=O)N[C@H]1CC[C@H](c2ncc(-c3ccc(Nc4ccon4)cc3S(=O)(=O)NC(C)(C)C)s2)CC1` [Example 30, isopropyl trans-(4-(5-(2-(N-(tert-butyl)sulfamoyl)-4-(isoxazol-3-ylamino)phenyl)thiazol-2-yl)cyclohexyl)carbamate] gave an IC50 of 2650 nM. With `CC(C)OC(=O)N[C@H]1CC[C@H](c2ncc(-c3ccc(Nc4ccc[nH]c4=O)cc3S(=O)(=O)C(C)C)s2)CC1` [Example 35, isopropyl trans-N-[4-[5-[2-isopropylsulfonyl-4-[(2-oxo-1H-pyridin-3-yl)amino]phenyl]thiazol-2-yl]cyclohexyl]carbamate] the IC50 was 4290 nM. `Cc1cc(Nc2ccc(-c3cnc([C@H]4CC[C@H](NC(=O)OC(C)C)CC4)s3)c(S(=O)(=O)C(C)C)c2)sn1` [Example 38] gave an IC50 of 150 nM. `CC(C)OC(=O)Nc1ccc(-c2nnc([C@H]3CC[C@H](NC(=O)OC(C)C)CC3)s2)c(S(=N)(=O)C(C)C)c1` (stereo partly drawn) [Example 41, isopropyl trans-N-[4-[5-[4-(isopropoxycarbonylamino)cyclohexyl]-1,3,4-thiadiazol-2-yl]-3-(isopropylsulfonimidoyl)phenyl]carbamate] showed an IC50 of 900 nM. For `CC(C)OC(=O)Nc1ccc(-c2cnc(C3CCC(NC(=O)OC(C)C)CC3)s2)c(S(C)(=O)=NC2CC2)c1` (stereo not drawn) [Example 43, isopropyl trans-N-[3-(N-cyclopropyl-S-methyl-sulfonimidoyl)-4-[2-[4-(isopropoxycarbonylamino)cyclohexyl]thiazol-5-yl]phenyl]carbamate], the IC50 was 1580 nM. `CC(C)OC(=O)N[C@H]1CC[C@H](c2ncc(-c3ccc(Nc4cccnn4)cc3S(=O)(=O)C(C)C)s2)CC1` [Example 44, isopropyl trans-N-[4-[5-[2-isopropylsulfonyl-4-(pyridazin-3-ylamino)phenyl]thiazol-2-yl]cyclohexyl]carbamate] was tested, and the IC50 was 680 nM. With `CC(C)OC(=O)N[C@H]1CC[C@H](c2ncc(-c3ccc(Nc4cc(C(F)(F)F)[nH]n4)cc3S(=O)(=O)C(C)C)s2)CC1` [Example 46] the IC50 was 390 nM. Work on `Cc1cc(Nc2ccc(-c3cnc([C@H]4CC[C@H](NC(=O)OC(C)C)CC4)s3)c(S(=O)(=O)C(F)(F)F)c2)n[nH]1` [Example 51, isopropyl trans-N-[4-[5-[4-[(5-methyl-1H-pyrazol-3-yl)amino]-2-(trifluoromethylsulfonyl)phenyl]thiazol-2-yl]cyclohexyl]carbamate] yielded an IC50 of 65 nM. `Cc1cc(Nc2ccc(-c3cnc(C4CCC(NC(=O)OC(C)C)CC4)s3)c([S+]([O-])C3CC3)c2)n[nH]1` (stereo not drawn) [Example 52, isopropyl trans-N-[4-[5-[2-cyclopropylsulfinyl]-4-[(5-methyl-1H-pyrazol-3-yl)amino]phenyl]thiazol-2-yl]cyclohexyl]carbamate] gave an IC50 of 80 nM. For `CC(C)OC(=O)NC12CCC(c3ncc(-c4ccc(Nc5cn(C)nn5)cc4S(=O)(=O)C4CC4)s3)(CC1)CC2` [Example 58], the IC50 was 27 nM. For `CC(C)OC(=O)Nc1ccc(-c2ncc(-c3ccc(Nc4cn(C)nn4)cc3S(=O)(=O)C3CC3)s2)cc1` [Example 59], the IC50 was 125 nM. Work on `Cc1cc(Nc2ccc(-c3cnc(C45CCC(NC(=O)OC(C)C)(CC4)CC5)s3)c(S(=O)(=O)C3CC3)c2)n[nH]1` [Example 60] yielded an IC50 of 4 nM. `Cc1cc(Nc2ccc(-c3cnc(-c4ccc(NC(=O)OC(C)C)cc4)s3)c(S(=O)(=O)C3CC3)c2)n[nH]1` [Example 61] showed an IC50 of 104 nM. With `CC(C)OC(=O)N[C@H]1CC[C@H](c2ncc(-c3ccc(Nc4cc(C5CC5)[nH]n4)cc3S(=N)(=O)C3CC3)s2)CC1` (stereo partly drawn) [Example 63, isopropyl trans-N-[4-[5-[4-[(5-cyclopropyl-1H-pyrazol-3-yl)amino]-2-(cyclopropylsulfonimidoyl)phenyl]thiazol-2-yl]cyclohexyl]carbamate] the IC50 was 70 nM. `CC(C)OC(=O)NC1CCC(c2ncc(-c3ccc(N4CCCO4)cc3S(=N)(=O)C3CC3)s2)CC1` (stereo not drawn) [Example 64, isopropyl trans-(4-(5-(2-(cyclopropanesulfonimidoyl)-4-(isoxazolidin-2-yl)phenyl)thiazol-2-yl)cyclohexyl)carbamate] gave an IC50 of 5200 nM. `CC(C)OC(=O)N[C@H]1CC[C@H](c2ncc(-c3ccc(Nc4ccccn4)cc3S(=O)(=O)C3CC3)s2)CC1` [Example 66, isopropyl trans-N-[4-[5-[2-cyclopropylsulfonyl-4-(2-pyridylamino)phenyl]thiazol-2-yl]cyclohexyl]carbamate] showed an IC50 of 18 nM.
